Assay results reported in patent publication US20170143653A1, “USE OF SULINDAC FOR PROTECTING RETINAL PIGMENT EPITHELIAL CELLS AGAINST OXIDATIVE STRESS” (CHS PHARMA, INC., priority 2011, published 2017).
“Also recorded” adds a separate entry of the source.

Experiments:
Format in all cases: cell-based
[1] = system: RPE cells; experiment: Reversal of sulindac protection of RPE cells against UV damage by PKC/PKG inhibitors; conditions: for reversal of the protective effect of sulindac against UV damage: 1200 mj UVB, rottlerin at 3 uM
Experimental: (§1) The ability of sulindac to protect RPE cells against oxidative stress was determined by analyzing cellular viability following treatment of cultured ARPE19 cells with sulindac, before exposing the cells to conditions leading to oxidative damage. Following 24 hr treatment of the cells with sulindac, ARPE19 cells were exposed to either a range of tert-Butyl Hydrogen peroxide (t-BHP) concentrations for 24 hrs or a range of intensities of ultraviolet B (UVB) to induce oxidative stress. To test the involvement of PKC, the non-specific PKC blocker chelerythrine and also specific blockers for individual isoforms of PKC were used. The possible role of PKG was investigated by the addition of PKG inhibitor Rp-8-Br-PET-CGMPs along with sulindac. Western blotting was used to detect induction of late phase markers of preconditioning.
The sulindac protective effect on RPE cells is due to ischemic preconditioning. The IPC response in tissues is often initiated by ROS and/or NO which activates mitochondrial PKC epsilon as part of a complex mechanism that also involves the opening of the mitochondrial ATP sensitive K+ channel and preventing the formation of the mitochondrial permeability transition pore. We have looked more closely at the possible role of PKC in the protection of RPE cells by sulindac, as was shown previously in cardiac studies. […] Based on previous preconditioning studies it seemed reasonable to look specifically at PKC epsilon. […] In the previous cardiac study it was also shown that two late stage preconditioning markers, iNOS and Hsp27 were induced by sulindac.
The role of PKG in the sulindac protective effect was examined. The above results support previous studies that agents that can initiate an ischemic preconditioning response may have therapeutic value in delaying the onset, or slowing the progression, of retinal diseases arising from ischemia and oxidative damage. […] Both sulindac and sildenafil are known to be inhibitors of PDE5, which results in increasing the level of cGMP and activation of PKG. […]

[2] = system: RPE cells; experiment: Protection of RPE cells against UVB radiation damage, cell viability
Experimental: as §1
It seemed reasonable to investigate whether sulindac could also protect other cells, such as RPE cells, which are susceptible to oxidative damage and known to have a strong ischemic preconditioning (IPC) response. Two types of oxidative stress were used in these experiments, either exposure of the RPE cells to an oxidizing agent such as TBHP, or exposure to UV light. In these experiments the RPE cells were pretreated for 24 hours with varying concentrations of sulindac, sulindac sulfone or sildenafil as described in the Figures. […] To determine whether this protective effect was due to the NSAID activity of sulindac, sulindac sulfone, a metabolite, of sulindac that has no NSAID activity was tested in place of sulindac for its UV protective effect. […] It should also be noted that sulindac sulfone is not a substrate for the Msr system which eliminates the possibility that the sulindac protective effect was related to its being a substrate for the Msr enzymes and functioning as a catalytic anti-oxidant in an ROS scavenging system.

[3] = system: ARPE-19 cells; conditions: human, 48 h
Experimental: (§2) For protecting RPE cells from oxidative stress induced damage we used the NSAID, sulindac. For our experiment we used ARPE-19 cells cultured in 96 well plates. The cells were preincubated with sulindac for 48 hours prior to exposing them to oxidative stress. Our oxidizing agents of choice were TBHP and Hydrogen peroxide (H2O2). We also stressed the ARPE-19 cells with 24 hours of Hypoxia treatment. After the stress the cellular viability was evaluated using the MTS assay. This assay uses a tetrazolium compound that is bioreduced into a formazan product in the cells. The signal generated (color intensity) is directly proportional to the number of viable (metabolically active) cells in the wells.
(§3) ARPE-19 cells were preincubated with different concentrations of sulindac ranging from 50 uM to 400 μM.

[4] = system: Hsp27; experiment: Western blot of late phase preconditioning marker Hsp27 in RPE cells; conditions: RPE cells pretreated 48 hours
Experimental: as §1
(§4) The sulindac protective effect on RPE cells is due to ischemic preconditioning. The IPC response in tissues is often initiated by ROS and/or NO which activates mitochondrial PKC epsilon as part of a complex mechanism that also involves the opening of the mitochondrial ATP sensitive K+ channel and preventing the formation of the mitochondrial permeability transition pore. We have looked more closely at the possible role of PKC in the protection of RPE cells by sulindac, as was shown previously in cardiac studies. […]

[5] = system: ARPE-19 cells; experiment: Protection of ARPE-19 cells against 24 hr hypoxic stress, cell viability; conditions: 24 hours preincubation, 24 hr hypoxia
Experimental: as §2
To test the ability of sulindac; in protecting against a variety of stresses ARPE-19 cells were exposed to 24 hours of hypoxic stress following sulindac preincubation. The ARPE-19 cells were grown in 96 well plates inside a hypoxia chamber having only 5% oxygen for 24 hours to induce hypoxic stress. Prior to exposing the cells to hypoxia, one set of cells was incubated 24 hours with sulindac.

[6] = system: ARPE-19 cells; experiment: Protection of ARPE-19 cells against H2O2 induced oxidative stress, cell viability; conditions: incubated 24 hrs, then 50 μM H2O2
Experimental: as §2
The next experiment was designed to determine if preincubation with sulindac is also effective in protecting ARPE-19 cells against oxidative stress induced by treatment of retina cells with H2O2. Cells were incubated with sulindac for 24 hrs and then exposed to 50 μM H2O2.

[7] = system: iNOS; experiment: Western blot of late phase preconditioning marker iNOS in RPE cells; conditions: RPE cells pretreated 48 hours
Experimental: as §1, §4

[8] = system: ARPE-19 cells; experiment: Protection of ARPE-19 cells against TBHP oxidative stress, cell viability (MTS)
Experimental: as §2, §3, §1
It seemed reasonable to investigate whether sulindac could also protect other cells, such as RPE cells, which are susceptible to oxidative damage and known to have a strong ischemic preconditioning (IPC) response. Two types of oxidative stress were used in these experiments, either exposure of the RPE cells to an oxidizing agent such as TBHP, or exposure to UV light. […]

O=c1c2nc(Br)n([C@@H]3O[C@@H]4CO[P@@](O)(=S)O[C@H]4[C@H]3O)c2nc2[nH]c(-c3ccccc3)cn12 [Rp-8-Br-PET-CGMPs]
inhibition of the sulindac protective effect on RPE cells exposed to UV damage ([1]; 250 nM, 24 hours with sulindac): > 50%

CCCc1nn(C)c2c(=O)[nH]c(-c3cc(S(=O)(=O)N4CCN(C)CC4)ccc3OCC)nc12 [sildenafil]
protection against UV damage ([2]; 20 uM, 1200 mj UVB): can also protect RPE cells against UV damage similar to sulindac

CC1=C(CC(=O)O)c2cc(F)ccc2/C1=C\c1ccc([S+](C)[O-])cc1 (centres unmarked) [sulindac]
sulindac concentration toxic to ARPE-19 cells (acute reduction of cell viability) [3]: ≥ 200 μM
induction of Hsp27 [4]: significant induction
protection against hypoxia induced stress (cell viability) [5]: significant protection; also recorded: higher viability
protection against H2O2 induced oxidative stress [6]: capable of protecting retina cells against H2O2 induced oxidative stress
protection against UV exposure ([2]; 500 uM, 24 hours pretreatment, 1200 mj UV): 50%
protection against UVB insult, survival ([2]; 24 hrs pretreatment, range of UVB intensities): protected them against both types of insult and enhanced survival
induction of iNOS [7]: significant induction
protection against t-BHP insult, survival ([8]; 24 hrs pretreatment, t-BHP 24 hrs): protected them against both types of insult and enhanced survival
protection against loss of cell viability due to oxidative stress by TBHP ([8]; ARPE-19 cells preincubated with 50 uM to 400 μM sulindac, 48 hours, MTS assay): protected the ARPE-19 cells against loss of cell viability
protection against TBHP damage (cell viability) ([8]; sulindac 125 and 200 uM, 24 hours pretreatment, varying TBHP): essentially complete protections

CC(=O)c1c(O)c(C)c(O)c(Cc2c(O)c3c(c(C(=O)/C=C/c4ccccc4)c2O)OC(C)(C)C=C3)c1O [rottlerin]
reversal of the protective effect of sulindac against UV damage [1]: no reversal

COc1ccc2c(c[n+](C)c3c4cc5c(cc4ccc23)OCO5)c1OC [chelerythrin]
reversal of the protective effect of sulindac against UV damage [1]: significantly reversed

CC1=C(CC(=O)O)c2cc(F)ccc2/C1=C\c1ccc(S(C)(=O)=O)cc1 [sulindac sulfone]
protection against hypoxia induced stress (cell viability) [5]: partial protection
protection against H2O2 induced oxidative stress [6]: only partial protection
protection against UV damage ([2]; 200 uM, 24 hours pretreatment): complete protection
